According to ChEMBL document CHEMBL4342450, “Antitumor Activity of Ohmyungsamycin A through the Regulation of the Skp2-p27 Axis and MCM4 in Human Colorectal Cancer Cells” (J Nat Prod, 2020):
Activity calls are given as the source filed them. The rule behind the calls is not given here. *1 amine or outer side, *2 acyl side, *3 side chain or, on linkers, in order; H or OH if unused. Where a SMILES comes first, the peptide text is derived from it. Bridges are numbered along the chain shown (N, C = ends). [ ]: non-standard residue; d: D form. Phe(3R-OH) = O=C([C@@H](N[*:1])[C@H](O[*:3])c1ccccc1)[*:2]; NMeTrp(4-OMe) = CN[C@@H](Cc1c[nH]c2cccc(OC)c12)C(=O)O; NMeT = CN[C@H](C(=O)O)[C@@H](C)O; NMeL = CN[C@@H](CC(C)C)C(=O)O; NMeV = CN[C@H](C(=O)O)C(C)C

Key:
HCT-116 [1] = assay: Induction of cell cycle arrest in human HCT116 cells assessed as accumulation at G0/G1 phase at 20 uM incubated for 18 hrs by propidium iodide staining based flow cytometry (reference value: 43.3%); type: functional
HCT-116 [2] = assay: Induction of cell cycle arrest in human HCT116 cells assessed as accumulation at G2/M phase at 5 uM incubated for 24 hrs by propidium iodide staining based flow cytometry (reference value: 15.7%); type: functional
HCT-116 [3] = assay: Induction of cell cycle arrest in human HCT116 cells assessed as accumulation at G0/G1 phase at 20 uM incubated for 24 hrs by propidium iodide staining based flow cytometry (reference value: 54.7%); type: functional
HCT-116 [4] = assay: Antitumor activity against human HCT116 cells xenografted in BALB/c nude mouse assessed as tumor weight at 5 mg/kg, ip administered thrice a week for 3.5 weeks measured on last day (reference value: 100%); type: functional
HCT-116 [5] = assay: Downregulation of cyclin E2 mRNA expression in human HCT116 cells after 12 hrs by RT-PCR method; type: functional, cell-based
HCT-116 [6] = assay: Downregulation of GINS2 gene expression in human HCT116 cells assessed as fold change at 15 uM incubated for 24 hrs by cDNA microarray analysis relative to control; type: functional
HCT-116 [7] = assay: Induction of cell cycle arrest in human HCT116 cells assessed as accumulation at sub-G1 phase at 20 uM incubated for 18 hrs by propidium iodide staining based flow cytometry (reference value: 0.9%); type: functional
HCT-116 [8] = assay: Modulation of Skp2-p27 Axis in human HCT116 cells assessed as upregulation of p21 expression after 24 hrs by Western blot analysis; type: functional, cell-based
HCT-116 [9] = assay: Induction of cell cycle arrest in human HCT116 cells assessed as accumulation at G0/G1 phase at 5 uM incubated for 24 hrs by propidium iodide staining based flow cytometry (reference value: 54.7%); type: functional
HCT-116 [10] = assay: Decrease in cell cycle associated protein expression in human HCT116 cells assessed as reduction in cyclin D1 expression at 5 to 20 uM after 24 hrs by Western blot analysis; type: functional, cell-based
HCT-116 [11] = assay: Effect on Cul1 expression in human HCT116 cells at 5 to 20 uM after 24 hrs by Western blot analysis; type: functional, cell-based
HCT-116 [12] = assay: Downregulation of BMP4 gene expression in human HCT116 cells assessed as fold change at 15 uM incubated for 24 hrs by cDNA microarray analysis relative to control; type: functional
HCT-116 [13] = assay: Downregulation of HSPA1B gene expression in human HCT116 cells assessed as fold change at 15 uM incubated for 24 hrs by cDNA microarray analysis relative to control; type: functional
HCT-116 [14] = assay: Induction of apoptosis in human HCT116 cells assessed as reduction in uncleaved full length caspase 8 level after 24 hrs by Western blot analysis; type: functional, cell-based
HCT-116 [15] = assay: Modulation of Skp2-p27 Axis in human HCT116 cells assessed as upregulation of p27 expression after 24 hrs by Western blot analysis; type: functional, cell-based
HCT-116 [16] = assay: Downregulation of PEG10 gene expression in human HCT116 cells assessed as fold change at 15 uM incubated for 24 hrs by cDNA microarray analysis relative to control; type: functional
HCT-116 [17] = assay: Downregulation of CCNE2 gene expression in human HCT116 cells assessed as fold change at 15 uM incubated for 24 hrs by cDNA microarray analysis relative to control; type: functional
HCT-116 [18] = assay: Induction of cell cycle arrest in human HCT116 cells assessed as accumulation at G2/M phase at 5 uM incubated for 18 hrs by propidium iodide staining based flow cytometry (reference value: 25.1%); type: functional
HCT-116 [19] = assay: Downregulation of KITLG gene expression in human HCT116 cells assessed as fold change at 15 uM incubated for 24 hrs by cDNA microarray analysis relative to control; type: functional
HCT-116 [20] = assay: Downregulation of DKK1 gene expression in human HCT116 cells assessed as fold change at 15 uM incubated for 24 hrs by cDNA microarray analysis relative to control; type: functional
HCT-116 [21] = assay: Downregulation of TMSB15A gene expression in human HCT116 cells assessed as fold change at 15 uM incubated for 24 hrs by cDNA microarray analysis relative to control; type: functional
HCT-116 [22] = assay: Modulation of Skp2-p27 Axis in human HCT116 cells assessed as reduction in Skp2 mRNA level at 5 to 20 uM after 12 hrs by real-time PCR method; type: functional, cell-based
HCT-116 [23] = assay: Downregulation of CYP24A1 gene expression in human HCT116 cells assessed as fold change at 15 uM incubated for 24 hrs by cDNA microarray analysis relative to control; type: functional
HCT-116 [24] = assay: Antiproliferative activity against human HCT116 cells after 72 hrs by sulforhodamine B assay; type: functional, cell-based
HCT-116 [25] = assay: Induction of cell cycle arrest in human HCT116 cells assessed as accumulation at sub-G1 phase at 5 uM incubated for 24 hrs by propidium iodide staining based flow cytometry (reference value: 4.8%); type: functional
HCT-116 [26] = assay: Downregulation of SCARA3 gene expression in human HCT116 cells assessed as fold change at 15 uM incubated for 24 hrs by cDNA microarray analysis relative to control; type: functional
HCT-116 [27] = assay: Modulation of Skp2-p27 Axis in human HCT116 cells assessed as downregulation of Skp2 expression at 5 to 20 uM after 24 hrs by Western blot analysis; type: functional, cell-based
HCT-116 [28] = assay: Decrease in cell cycle associated protein expression in human HCT116 cells assessed as reduction in CDK4 expression at 5 to 20 uM after 24 hrs by Western blot analysis; type: functional, cell-based
HCT-116 [29] = assay: Induction of cell cycle arrest in human HCT116 cells assessed as accumulation at G2/M phase at 20 uM incubated for 24 hrs by propidium iodide staining based flow cytometry (reference value: 15.7%); type: functional
HCT-116 [30] = assay: Induction of apoptosis in human HCT116 cells assessed as increase in cleaved caspase 7 level after 24 hrs by Western blot analysis; type: functional, cell-based
HCT-116 [31] = assay: Downregulation of CDCA7 gene expression in human HCT116 cells assessed as fold change at 15 uM incubated for 24 hrs by cDNA microarray analysis relative to control; type: functional
[32] = Toxicity in BALB/c nude mouse assessed as changes in body weight at 5 to 10 mg/kg, ip administered thrice a week for 3.5 weeks; type: organism-based; settings: in vivo, 588 h
HCT-116 [33] = assay: Induction of cell cycle arrest in human HCT116 cells assessed as accumulation at sub-G1 phase at 5 uM incubated for 18 hrs by propidium iodide staining based flow cytometry (reference value: 0.9%); type: functional
HCT-116 [34] = assay: Induction of morphological changes in human HCT116 cells assessed as appearance of shrunken cells at 4 to 20 uM by inverted phase-contrast microscopic method; type: functional, cell-based
Mus musculus = assay: In vivo modulation of Skp2-p27 axis in tumor of BALB/c mouse xenografted with human HCT116 cells assessed as upregulation of p27 mRNA level at 5 to 10 m/kg, ip administered thrice a week for 3.5 weeks by RT-PCR method; type: functional, organism-based
HCT-116 [35] = assay: Antitumor activity against human HCT116 cells xenografted in BALB/c nude mouse assessed as reduction in tumor volume at 5 to 10 mg/kg, ip administered thrice a week for 3.5 weeks and measured […] by caliper method; type: functional, organism-based

`CN[C@H](C(=O)N[C@H](C(=O)N[C@@H]1C(=O)N(C)[C@@H]([C@@H](C)O)C(=O)N[C@@H](C(C)C)C(=O)N(C)[C@@H](CC(C)C)C(=O)N[C@@H](C(C)C)C(=O)N(C)[C@@H](C(C)C)C(=O)N(C)[C@@H](Cc2c[nH]c3cccc(OC)c23)C(=O)N[C@@H](C(C)C)C(=O)N[C@@H]([C@H](O)c2ccccc2)C(=O)N[C@@H](C(C)C)C(=O)O[C@@H]1C)C(C)C)C(C)C` (H-[NMeV]VT[NMeT]V[NMeL]V[NMeV][NMeTrp(4-OMe)]V[Phe(3R-OH)]V; ester 3-C) gave an Activity (HCT-116 [1]) of 55.4%, an Activity (HCT-116 [2]) of 12.5% and an Activity (HCT-116 [3]) of 30.9%. For the same molecule, the Activity (HCT-116 [4]) was 70.3%, the inhibition (HCT-116 [5]) was “Dose-dependent effect” and the “fold change (FC)” value (HCT-116 [6]) was 7.45. The Activity (HCT-116 [7]) was 7.1%, the Activity (HCT-116 [8]) was “Dose-dependent effect” and the Activity (HCT-116 [9]) was 60.9%. The inhibition (HCT-116 [10]) was “Active”, the Activity (HCT-116 [11]) was “inactive” and the “fold change (FC)” value (HCT-116 [12]) was 4.773. For the same molecule, the “fold change (FC)” value (HCT-116 [13]) was 4.531, the Activity (HCT-116 [14]) was “Dose-dependent effect” and the Activity (HCT-116 [15]) was “Dose-dependent effect”. The “fold change (FC)” value (HCT-116 [16]) was 4.917, the “fold change (FC)” value (HCT-116 [17]) was 4.613 and the Activity (HCT-116 [18]) was 22.3%. The “fold change (FC)” value (HCT-116 [19]) was 4.177, the “fold change (FC)” value (HCT-116 [20]) was 4.144 and the “fold change (FC)” value (HCT-116 [21]) was 6.779. The inhibition (HCT-116 [22]) was “Active”, the “fold change (FC)” value (HCT-116 [23]) was 18.5 and the inhibition (HCT-116 [24]) was “Dose-dependent effect”. For the same molecule, the IC50 (HCT-116 [24]; HCT-116, 72 h) was 7.61 µM, the Activity (HCT-116 [25]) was 19% and the “fold change (FC)” value (HCT-116 [26]) was 4.372. The inhibition (HCT-116 [27]) was “Active”, the inhibition (HCT-116 [28]) was “Active” and the Activity (HCT-116 [29]) was 10.8%. The Activity (HCT-116 [30]) was “Dose-dependent effect”, the “fold change (FC)” value (HCT-116 [31]) was 4.702 and the Activity [32] was “Non-Toxic”. The Activity (HCT-116 [33]) was 1.4%, the Activity (HCT-116 [34]) was “Active” and the Activity (Mus musculus) was “Active”. For the same molecule, the Activity (HCT-116 [35]) was “Active”.
